Measured values: the OligoGym collection
Values joined by “and” are separate entries in the source; they are usually repeats but may differ in a detail not shown here. Equal values may be shown once. After the bases stand the sugars from the 5' end (letter, count) and the backbone: PS all phosphorothioate, else s phosphorothioate and o phosphodiester by linkage. Methylation of C is not given here. e = 2'-O-(2-methoxyethyl) (MOE); k = constrained ethyl (cEt); d = 2'-deoxy (DNA)

Molecular target: SOD1
Conditions: ASO

In the case of “AGTGTTTAATGTTTATC (sugars ekekddddddddeeeee, linkages s1 o2 s9 o2 s2)”, the target mRNA inhibition (A431, 0.062 µM) is reported as 24%, the target mRNA inhibition (A431, 0.185 µM) is reported as 37% and the target mRNA inhibition (A431, 0.556 µM) is reported as 57%. It also gave a target mRNA inhibition (A431, 1.667 µM) of 77%, a target mRNA inhibition (A431, 5 µM) of 81% and a target mRNA inhibition (A431, 15 µM) of 86%. It also gave a target mRNA inhibition (SH-SY5Y, 0.062 µM) of 3%, a target mRNA inhibition (SH-SY5Y, 0.185 µM) of 6% and a target mRNA inhibition (SH-SY5Y, 0.556 µM) of 48%. For the same sequence, the target mRNA inhibition (SH-SY5Y, 1.667 µM) was 69%, the target mRNA inhibition (SH-SY5Y, 5 µM) was 77% and the target mRNA inhibition (SH-SY5Y, 15 µM) was 87%.

For “AGTGTTTAATGTTTATC (sugars ekekddddddddkekee, linkages s1 o2 s9 o2 s2)”, the target mRNA inhibition (A431, 0.062 µM) was 52%, the target mRNA inhibition (A431, 0.185 µM) was 68% and the target mRNA inhibition (A431, 0.556 µM) was 79%. It also gave a target mRNA inhibition (A431, 1.667 µM) of 88%, a target mRNA inhibition (A431, 5 µM) of 89% and a target mRNA inhibition (A431, 15 µM) of 91%. It also gave a target mRNA inhibition (SH-SY5Y, 0.062 µM) of 38%, a target mRNA inhibition (SH-SY5Y, 0.185 µM) of 49% and a target mRNA inhibition (SH-SY5Y, 0.556 µM) of 61%. The target mRNA inhibition (SH-SY5Y, 1.667 µM) was 83%, the target mRNA inhibition (SH-SY5Y, 5 µM) was 81% and the target mRNA inhibition (SH-SY5Y, 15 µM) was 84%.

“AGTGTTTAATGTTTATCAGG (sugars e5 d10 e5, linkages s1 o3 s11 o3 s1)” gave a target mRNA inhibition (A431, 0.12 µM) of 16%, a target mRNA inhibition (A431, 0.6 µM) of 49% and a target mRNA inhibition (A431, 3 µM) of 60%. For the same sequence, the target mRNA inhibition (A431, 15 µM) was 75%, the target mRNA inhibition (HepG2, 0.222 µM) was 28% and the target mRNA inhibition (HepG2, 0.667 µM) was 55%. The target mRNA inhibition (HepG2, 2 µM) was 89% and the target mRNA inhibition (HepG2, 6 µM) was 80%.

“ATAATAAGTGCCATACA (sugars e2 k2 d9 k2 e2, PS)” gave a target mRNA inhibition (HepG2, 5 µM) of 27%.

“ATACAGGTCATTGAAAC (sugars e2 k2 d8 k2 e3, PS)” gave a target mRNA inhibition (HepG2, 5 µM) of 33%.

With “ATCTTCAATAGACACATCGG (sugars e5 d10 e5, PS)” the target mRNA inhibition (HepG2, 5 µM) was 16% and 0%.

Work on “ATGCAATGGTCTCCTGAGAG (sugars e5 d10 e5, PS)” yielded a target mRNA inhibition (HepG2, 5 µM) of 0%.

With “ATGCTTCCCCACACCTT (sugars e3 k2 d7 k2 e3, PS)” the target mRNA inhibition (HepG2, 3 µM) was 41%.

Sequence “ATGTTTATCAGGATACA (sugars e2 k2 d8 k2 e3, PS)” has a target mRNA inhibition (HepG2, 0.1875 µM) of 40%, a target mRNA inhibition (HepG2, 0.75 µM) of 75% and a target mRNA inhibition (HepG2, 3 µM) of 92%. For the same sequence, the target mRNA inhibition (HepG2, 4 µM) was 85% and 86% and the target mRNA inhibition (HepG2, 12 µM) was 95% and 98%.

In the case of “ATGTTTATCAGGATACA (sugars e2 k2 d8 k2 e3, linkages s1 o2 s9 o2 s2)”, the target mRNA inhibition (A431, 0.12 µM) is reported as 2%, the target mRNA inhibition (A431, 0.6 µM) is reported as 4% and the target mRNA inhibition (A431, 3 µM) is reported as 12%. It also gave a target mRNA inhibition (A431, 15 µM) of 52%, a target mRNA inhibition (HepG2, 0.222 µM) of 53% and a target mRNA inhibition (HepG2, 0.667 µM) of 73%. It also gave a target mRNA inhibition (HepG2, 2 µM) of 89% and a target mRNA inhibition (HepG2, 6 µM) of 90%.

“ATGTTTATCAGGATACA (sugars e2 k2 d9 k2 e2, linkages s1 o3 s9 o1 s2)” gave a target mRNA inhibition (A431, 0.12 µM) of 1%, a target mRNA inhibition (A431, 0.6 µM) of 4% and a target mRNA inhibition (A431, 3 µM) of 21%. For the same sequence, the target mRNA inhibition (A431, 15 µM) was 29%, the target mRNA inhibition (HepG2, 0.222 µM) was 47% and the target mRNA inhibition (HepG2, 0.667 µM) was 71%. It also gave a target mRNA inhibition (HepG2, 2 µM) of 92% and a target mRNA inhibition (HepG2, 6 µM) of 82%.

“ATTACACCACAAGCCAA (sugars e2 k2 d8 k2 e3, PS)” showed a target mRNA inhibition (HepG2, 4 µM) of 46%.

In the case of “ATTACACCACAAGCCAA (sugars e2 k2 d9 k2 e2, PS)”, the target mRNA inhibition (HepG2, 4 µM) is reported as 63%.

With “ATTACAGTGTTTAATGT (sugars e3 k2 d7 k2 e3, PS)” the target mRNA inhibition (HepG2, 3 µM) was 24%.

Work on “ATTCACAGGCTTGAATG (sugars e2 k2 d8 k2 e3, PS)” yielded a target mRNA inhibition (HepG2, 5 µM) of 19%.

Work on “ATTCTGACAAGTTTAAT (sugars e3 k2 d7 k2 e3, PS)” yielded a target mRNA inhibition (HepG2, 3 µM) of 9%.

With “ATTGAAACAGACATTTT (sugars e3 k2 d7 k2 e3, PS)” the target mRNA inhibition (HepG2, 3 µM) was 22%.

Work on “ATTGGGCGATCCCAATT (sugars e2 k2 d8 k2 e3, PS)” yielded a target mRNA inhibition (HepG2, 4 µM) of 2%.

“ATTGGGCGATCCCAATT (sugars e2 k2 d9 k2 e2, PS)” showed a target mRNA inhibition (HepG2, 4 µM) of 23%.

“ATTGGGCGATCCCAATT (sugars e3 k2 d7 k2 e3, PS)” was tested, and the target mRNA inhibition (HepG2, 3 µM) was 19%.

With “ATTTCCACCTTTGCCCA (sugars e3 k2 d7 k2 e3, PS)” the target mRNA inhibition (HepG2, 3 µM) was 63%.

Sequence “ATTTCCACCTTTGCCCAAGT (sugars e5 d10 e5, PS)” has a target mRNA inhibition (HepG2, 4 µM) of 56% and a target mRNA inhibition (HepG2, 12 µM) of 84%.

“ATTTCTACAGCTAGCAG (sugars e2 k2 d8 k2 e3, PS)” gave a target mRNA inhibition (HepG2, 4 µM) of 66%.

With “CAAAATACAGGTCATTG (sugars e3 k2 d7 k2 e3, PS)” the target mRNA inhibition (HepG2, 3 µM) was 23%.

For “CAAACCAGCACCCCGTCTCC (sugars e5 d10 e5, PS)”, the target mRNA inhibition (HepG2, 4 µM) was 13%.

Work on “CAACATGCCTCTCTTCA (sugars e3 k2 d7 k2 e3, PS)” yielded a target mRNA inhibition (HepG2, 3 µM) of 3%.

“CAAGGGAATGTTTATTG (sugars e2 k2 d8 k2 e3, PS)” was tested, and the target mRNA inhibition (HepG2, 4 µM) was 43%.

Work on “CAAGGGAATGTTTATTG (sugars e2 k2 d9 k2 e2, PS)” yielded a target mRNA inhibition (HepG2, 4 µM) of 38%.

“CAAGTCATCTGCTTTTT (sugars e3 k2 d7 k2 e3, PS)” gave a target mRNA inhibition (HepG2, 3 µM) of 42%.
